From PubChem BioAssay (NCI)
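How tested: cells in 96-well plates exposed to compound for 48 hours at five concentrations. TGI: concentration producing complete growth inhibition.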 Where a SMILES comes first, the peptide text is derived from it. The star is where a group is joined. Boc = CC(C)(C)OC(=O)*; OBn = c1ccc(CO*)cc1

tested on: A549 NSCLC; assay: inhibition of tumour cell growth, NCI panel, 48 h

Row | SMILES | TGI [µM]
1 | N#CC(C#N)N=Cc1ccncc1 | > 100
2 | COc1ccc2c(c1)/C(=C\c1c(C)nc3n1CCS3)C(=O)N2 | > 100
3 | CN(C)C=C1C(=O)c2c(Br)sc(Br)c2C1=O | > 100
4 | O=c1[nH]n(Cc2ccccc2Cl)c2ccc([N+](=O)[O-])cc12 | > 100
5 | COc1cc2c[n+](C)c3c4cc5c(cc4ccc3c2cc1OC)OCO5 | 0.756
6 | CCOC(=O)CCC(NC(=O)c1ccc(CNc2nc3ccccc3nc2C(=O)OCC)cc1)C(=O)OCC (stereo unspecified) | > 100
7 | COC(=O)Nc1nc2ccc(S(=O)(=O)NC(CC(C)C)C(=O)OC)cc2[nH]1 (stereo unspecified) | > 100
8 | Cc1cc([C@H](C#N)c2nc3ccccc3[nH]2)nc(Cl)n1 | > 100
9 | OC(CCN1CCCCC1)(c1ccccc1)c1ccccc1 | > 100
10 | COC1CC(C)C(OC)C2=CC(=O)C=C(NC(=O)/C(C)=C/C=C\C(C)C(OC(N)=O)/C(C)=C\C(C)C1OC)C2=O (stereo unspecified) | 31.4
11 | O=C1c2ccccc2C(O)(C(=O)O)C1(O)CC=C(Cl)Cl (stereo unspecified) | > 125
12 | CN(C)C=Nc1cccc2nsnc12 | > 100
13 | CC(=O)O[C@@H]1CC[C@@]2(C)C(CC[C@H]3[C@@H]4CC[C@H]([C@H](C)CCc5nc6ccc(C)cc6[nH]5)[C@@]4(C)CC[C@@H]32)C1 (stereo partly specified) | > 100
14 | COc1cccc(OC/C(N=Cc2cccnc2)=N/NC(=O)c2ccncc2)c1 | > 100
15 | Cc1csc2nc3c(cnn3C)c(=S)n12 | > 100
16 | C/C1=C/C(C)CC(C)OC(=O)C(C)NC(=O)C(Cc2ccc(O)c(I)c2)N(C)C(=O)CNC(=O)C(C)C1 (stereo unspecified) | > 100
17 | COC(=O)C(C)NP(=O)(N1CC1)N1CC1 (stereo unspecified) | > 100
18 | Cc1ccc(-n2cnc3c(N)nc(N)nc32)cc1 | > 100
19 | Ic1ncnc2c1ncn2C1CCCO1 (stereo unspecified) | > 100
20 | COc1ccc(Nc2nnc(CCCCCCCCc3nnc(Nc4ccc(OC)cc4)o3)o2)cc1 | > 100
21 | O=c1c(C=Nc2ccccc2Cl)c(O)n(-c2ccccc2)c(=O)n1-c1ccccc1 | > 100
22 | CCOC(=O)NNC(=O)C1CSC(c2ccccc2)N1C(C)=O (stereo unspecified) | > 100
23 | O=[n+]1c2ccccc2n([O-])c2ccccc21 | > 100
24 | CC(C)(C)O/C=C1/C(=O)OC2C[C@@H](O[Si](C)(C)C(C)(C)C)CC12 (stereo partly specified) | > 100
25 | CCCCCCCCCCCCCCCCCCNc1ccn(C2OC(COP(=O)(O)OC3CC(n4cc(F)c(=O)[nH]c4=O)OC3COP(=O)(O)OCC3OC(n4ccc(N)nc4=O)C(O)C3O)C(O)C2O)c(=O)n1 (stereo unspecified) | > 51

tested on: ACHN renal; assay: inhibition of tumour cell growth, NCI panel, 48 h

Row | SMILES | TGI [µM]
26 | Cc1oc2c(c1C)S(=O)(=O)C(C#N)C(c1ccccc1)N2 (stereo unspecified) | > 100
27 | CC(=O)Oc1cc2c(n(C)c1=O)-c1ccccc1C2 | > 100
28 | Nc1nc(N)c2cc(Sc3ccc4nc(N)nc(N)c4c3)ccc2n1 | > 100
29 | N#CC(C#N)N=Cc1ccncc1 | > 100
30 | COc1ccc2c(c1)/C(=C\c1c(C)nc3n1CCS3)C(=O)N2 | > 100
31 | CN(C)C=C1C(=O)c2c(Br)sc(Br)c2C1=O | 93.7
32 | O=c1[nH]n(Cc2ccccc2Cl)c2ccc([N+](=O)[O-])cc12 | > 100
33 | COc1cc2c[n+](C)c3c4cc5c(cc4ccc3c2cc1OC)OCO5 | > 100
34 | CCOC(=O)CCC(NC(=O)c1ccc(CNc2nc3ccccc3nc2C(=O)OCC)cc1)C(=O)OCC (stereo unspecified) | > 100
35 | COC(=O)Nc1nc2ccc(S(=O)(=O)NC(CC(C)C)C(=O)OC)cc2[nH]1 (stereo unspecified) | > 100
36 | Cc1cc([C@H](C#N)c2nc3ccccc3[nH]2)nc(Cl)n1 | > 100
37 | OC(CCN1CCCCC1)(c1ccccc1)c1ccccc1 | > 100
38 | COC1CC(C)C(OC)C2=CC(=O)C=C(NC(=O)/C(C)=C/C=C\C(C)C(OC(N)=O)/C(C)=C\C(C)C1OC)C2=O (stereo unspecified) | 3.97
39 | CN(C)C=Nc1cccc2nsnc12 | > 100
40 | CC(=O)O[C@@H]1CC[C@@]2(C)C(CC[C@H]3[C@@H]4CC[C@H]([C@H](C)CCc5nc6ccc(C)cc6[nH]5)[C@@]4(C)CC[C@@H]32)C1 (stereo partly specified) | > 100
41 | COc1cccc(OC/C(N=Cc2cccnc2)=N/NC(=O)c2ccncc2)c1 | > 100
42 | Cc1csc2nc3c(cnn3C)c(=S)n12 | > 100
43 | COC(=O)C(C)NP(=O)(N1CC1)N1CC1 (stereo unspecified) | > 100
44 | Cc1ccc(-n2cnc3c(N)nc(N)nc32)cc1 | > 100
45 | Ic1ncnc2c1ncn2C1CCCO1 (stereo unspecified) | > 100
46 | COc1ccc(Nc2nnc(CCCCCCCCc3nnc(Nc4ccc(OC)cc4)o3)o2)cc1 | > 100
47 | O=c1c(C=Nc2ccccc2Cl)c(O)n(-c2ccccc2)c(=O)n1-c1ccccc1 | > 100
48 | CCOC(=O)NNC(=O)C1CSC(c2ccccc2)N1C(C)=O (stereo unspecified) | > 100
49 | O=[n+]1c2ccccc2n([O-])c2ccccc21 | > 100
50 | CC(C)(C)O/C=C1/C(=O)OC2C[C@@H](O[Si](C)(C)C(C)(C)C)CC12 (stereo partly specified) | > 100
51 | CCCCCCCCCCCCCCCCCCNc1ccn(C2OC(COP(=O)(O)OC3CC(n4cc(F)c(=O)[nH]c4=O)OC3COP(=O)(O)OCC3OC(n4ccc(N)nc4=O)C(O)C3O)C(O)C2O)c(=O)n1 (stereo unspecified) | > 100
52 | CC(C)C(NC(=O)C(Cc1ccccc1)NC(=O)OC(C)(C)C)C(=O)NCC(=O)OCc1ccccc1 (stereo not drawn) (Boc-Phe-Val-Gly-OBn; configuration not given here) | 31.4

tested on: CCRF-CEM leukemia; assay: inhibition of tumour cell growth, NCI panel, 48 h

Row | SMILES | TGI [µM]
53 | Cc1oc2c(c1C)S(=O)(=O)C(C#N)C(c1ccccc1)N2 (stereo unspecified) | 48.2
54 | CC(=O)Oc1cc2c(n(C)c1=O)-c1ccccc1C2 | > 100
55 | Nc1nc(N)c2cc(Sc3ccc4nc(N)nc(N)c4c3)ccc2n1 | 0.0104
56 | N#CC(C#N)N=Cc1ccncc1 | > 100
